Measured values reported in patent US10611750B2, “Tetrahydroquinoline compositions as bet bromodomain inhibitors” (FORMA Therapeutics, Inc., priority 2013, dated 2020).
Read-outs that look alike come from different tables or passages of the source.

Columns and labels:
[1] = target: T1, BRD4 Bromodomain 1 (BRD4 BD1) (Homo sapiens, UniProt O60885); experiment: AlphaScreen binding assay, BRD4 BD1; conditions: His-tagged BRD4 BD1 50 nM, biotinylated H4 (1-21) K5/8/12/16 tetra-acetylated peptide 50 nM, compounds listed under IC50 range headings
T1 construct: 44-168 and BRD4 BD2
Method in brief: (§1)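 Compound dilution series were mixed with His-tagged BRD4 bromodomain and biotinylated tetra-acetylated H4 (1-21) peptide at pH 7.3 (BD1 and peptide at 50 nM, BD2 and peptide at 100 nM). Donor and acceptor beads were then added, and plates were equilibrated at least 1 h before reading. IC50 values were fitted with a four-parameter logistic model.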

[2] = target: T2, BRD4 Bromodomain 2 (BRD4 BD2) (Homo sapiens, UniProt O60885); experiment: AlphaScreen binding assay, BRD4 BD2; conditions: His-tagged BRD4 BD2 100 nM, biotinylated H4 (1-21) K5/8/12/16 tetra-acetylated peptide 100 nM, compounds listed under IC50 range headings
T2 construct: 333-460 were cloned, expressed, and purified to homogeneity
Method in brief: as §1

[3] = system: acute myelocytic leukemia (AML) cell line MV4-11; experiment: Oncology cell growth assay (3-day proliferation, CellTiter-Glo); type: cell-based; conditions: Homo sapiens, MV4-11 cells, 3000 cells/well, compounds listed under IC50 range headings, read-out: MV411 IC50 (gIC50, inhibition of proliferation)
Method in brief: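 Luminescence from CellTiter-Glo served as the growth read-out after MV4-11 cells (3000/well) were cultured with compound for 72 hours. Final concentrations spanned 10 to 0.0045 μM in 3-fold steps. gIC50 values were derived by four-parameter logistic fitting relative to DMSO and cell-free controls.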

For `CC(=O)N1c2ccc(-c3cnn(C4CC4)c3)c(OC3CNC3)c2CC[C@@H]1C` [I-60, (S)-1-(5-(azetidin-3-yloxy)-6-(1-cyclopropyl-1H-pyrazol-4-yl)-2-methyl-3,4-dihydroquinolin-1(2H)-yl)ethanone], the IC50 [1] was at least 10000 nM, the IC50 [2] was at least 500 nM and the IC50 ([3]; MV4-11, 72 h) was over 1000 nM.
For `CC(=O)N1c2ccc(-c3cnn(CCS(C)(=O)=O)c3)c(OCC3CCOCC3)c2CC[C@@H]1C` [I-413], the IC50 [1] was 100 to 1000 nM, the IC50 [2] was 50 to 500 nM and the IC50 ([3]; MV4-11, 72 h) was under 500 nM.
In the case of `COC(=O)N1c2ccc(-c3cnn(C4CC4)c3)c(O[C@@H](F)C(N)=O)c2CC[C@@H]1C` [I-20, (S)-methyl 5-((S)-2-amino-1-fluoro-2-oxoethoxy)-6-(1-cyclopropyl-1H-pyrazol-4-yl)-2-methyl-3,4-dihydroquinoline-1(2H)-carboxylate], the IC50 [1] is reported as at least 10000 nM, the IC50 [2] is reported as at least 500 nM and the IC50 ([3]; MV4-11, 72 h) is reported as over 1000 nM.
In the case of `C[C@H]1CCc2c(ccc(-c3cnn(C4CCNCC4)c3)c2Oc2ccc(C#N)cc2F)N1C(=O)C1CC1` [I-152, (S)-4-(1-(cyclopropanecarbonyl)-2-methyl-6-(1-(piperidin-4-yl)-1H-pyrazol-4-yl)-1,2,3,4-tetrahydroquinolin-5-yloxy)-3-fluorobenzonitrile], the IC50 [1] is reported as 100 to 1000 nM, the IC50 [2] is reported as under 50 nM and the IC50 ([3]; MV4-11, 72 h) is reported as under 500 nM.
`CCCOc1c(-c2nc3ccccc3s2)ccc2c1CC[C@H](C)N2C(C)=O` [I-120, (S)-1-(6-(benzo[d]thiazol-2-yl)-2-methyl-5-propoxy-3,4-dihydroquinolin-1(2H)-yl)ethanone] showed an IC50 [1] of 1000 to 10000 nM, an IC50 [2] of at least 500 nM and an IC50 ([3]; MV4-11, 72 h) of over 1000 nM.
Compound `CC(=O)N1c2ccc(-c3cnn(C4CC4)c3)c(Oc3ncc4cn[nH]c4n3)c2CC[C@@H]1C` [I-82, (S)-1-(5-(1H-pyrazolo[3,4-d]pyrimidin-6-yloxy)-6-(1-cyclopropyl-1H-pyrazol-4-yl)-2-methyl-3,4-dihydroquinolin-1(2H)-yl)ethanone] has an IC50 [1] of 1000 to 10000 nM, an IC50 [2] of 50 to 500 nM and an IC50 ([3]; MV4-11, 72 h) of 500 to 1000 nM.
Compound `CC(=O)N1c2ccc(-c3ccc4c(c3)CCN4S(C)(=O)=O)c(OCC(=O)N(C)C)c2CC[C@@H]1C` [I-501] has an IC50 [1] of 1000 to 10000 nM, an IC50 [2] of 50 to 500 nM and an IC50 ([3]; MV4-11, 72 h) of over 1000 nM.
Work on `CC(=O)N1c2ccc(-c3cnn(C4CC4)c3)c(O[C@H](F)C(N)=O)c2CC[C@@H]1C` (single isomer, unassigned) [I-63] yielded an IC50 [1] of 1000 to 10000 nM, an IC50 [2] of 50 to 500 nM and an IC50 ([3]; 72 hours) of over 1000 nM.
Work on `COC(=O)N1c2ccc(-c3cnn(C4CC4)c3)c(OCC3CC3(F)F)c2CC[C@@H]1C` (stereo partly drawn) [I-31, (2S)-methyl 6-(1-cyclopropyl-1H-pyrazol-4-yl)-5-((2,2-difluorocyclopropyl)methoxy)-2-methyl-3,4-dihydroquinoline-1(2H)-carboxylate] yielded an IC50 [1] of 100 to 1000 nM, an IC50 [2] of under 50 nM and an IC50 ([3]; MV4-11, 72 h) of 500 to 1000 nM.
Compound `CC(=O)N1c2ccc(-c3cnn(C4CC4)c3)c(OCC3CCOCC3)c2CC[C@@H]1C` [I-400] has an IC50 [1] of 100 to 1000 nM, an IC50 [2] of 50 to 500 nM and an IC50 ([3]; MV4-11, 72 h) of under 500 nM.
Compound `CCCOc1c(-c2cnn(CC(C)(C)O)c2)ccc2c1CC[C@H](C)N2C(=O)OC` [I-442] has an IC50 [1] of 1000 to 10000 nM, an IC50 [2] of under 50 nM and an IC50 ([3]; MV4-11, 72 h) of under 500 nM.
`CC(=O)N1c2ccc(-c3cnn(C4CCNCC4)c3)c(Nc3ccccc3)c2CC[C@@H]1C` [I-359, (S)-1-(2-methyl-5-(phenylamino)-6-(1-(piperidin-4-yl)-1H-pyrazol-4-yl)-3,4-dihydroquinolin-1(2H)-yl)ethan-1-one] gave an IC50 [1] of 1000 to 10000 nM, an IC50 [2] of 50 to 500 nM and an IC50 ([3]; 72 hours) of under 500 nM.
`CC(=O)N1c2ccc(-c3cnn(C4CCNCC4)c3)c(Oc3ncccc3Cl)c2CC[C@@H]1C` [I-142, (S)-1-(5-(3-chloropyridin-2-yloxy)-2-methyl-6-(1-(piperidin-4-yl)-1H-pyrazol-4-yl)-3,4-dihydroquinolin-1 (2H)-yl)ethanone] was tested, and the IC50 [1] was 100 to 1000 nM, the IC50 [2] was 50 to 500 nM and the IC50 ([3]; MV4-11, 72 h) was under 500 nM.
`CC(=O)N1c2ccc(-c3cnn(C4CCNCC4)c3)c(Oc3ncc(C4CC4)cn3)c2CC[C@@H]1C` [I-518] showed an IC50 [1] of 100 to 1000 nM, an IC50 [2] of 50 to 500 nM and an IC50 ([3]; MV4-11, 72 h) of under 500 nM.
`CC(=O)N1c2ccc(-c3cnn(C4CC4)c3)c(Oc3ccc(C#N)cc3)c2CC[C@@H]1C` [I-217, (S)-4-(1-acetyl-6-(1-cyclopropyl-1H-pyrazol-4-yl)-2-methyl-1,2,3,4-tetrahydroquinolin-5-yloxy)benzonitrile] showed an IC50 [1] of 100 to 1000 nM, an IC50 [2] of under 50 nM and an IC50 ([3]; MV4-11, 72 h) of under 500 nM.
`CC(=O)N1c2ccc(-c3cnn(C4CC4)c3)c(OCC3(F)COC3)c2CC[C@@H]1C` [I-50, (S)-1-(6-(1-cyclopropyl-1H-pyrazol-4-yl)-5-((3-fluorooxetan-3-yl)methoxy)-2-methyl-3,4-dihydroquinolin-1 (2H)-yl)ethanone] gave an IC50 [1] of 100 to 1000 nM, an IC50 [2] of under 50 nM and an IC50 ([3]; MV4-11, 72 h) of 500 to 1000 nM.
Compound `COC(=O)N1c2ccc(-c3cnn(C4CCNCC4)c3)c(Oc3ccc(F)c(Cl)c3)c2CC[C@@H]1C` [I-163, (S)-methyl 5-(3-chloro-4-fluorophenoxy)-2-methyl-6-(1-(piperidin-4-yl)-1H-pyrazol-4-yl)-3,4-dihydroquinoline-1(2H)-carboxylate] has an IC50 [1] of 100 to 1000 nM, an IC50 [2] of under 50 nM and an IC50 ([3]; MV4-11, 72 h) of under 500 nM.
`C[C@H]1CCc2c(ccc(-c3cnn(C4CCNCC4)c3)c2Oc2ccc(C#N)cc2)N1C(=O)C1CC1` [I-167] showed an IC50 [1] of 100 to 1000 nM, an IC50 [2] of under 50 nM and an IC50 ([3]; MV4-11, 72 h) of under 500 nM.
`COC(=O)N1c2ccc(-c3cnn(CCS(C)(=O)=O)c3)c(OC3CCC3)c2CC[C@@H]1C` [I-444] gave an IC50 [1] of 100 to 1000 nM, an IC50 [2] of under 50 nM and an IC50 ([3]; MV4-11, 72 h) of under 500 nM.
`CC(=O)N1c2ccc(-c3cnn(C4CCNCC4)c3)c(Oc3ncc(F)cn3)c2CC[C@@H]1C` [I-511] was tested, and the IC50 [1] was 100 to 1000 nM, the IC50 [2] was under 50 nM and the IC50 ([3]; MV4-11, 72 h) was under 500 nM.
With `COC(=O)N1c2ccc(-c3cnn(C4CCNCC4)c3)c(Oc3ccc(F)c(C#N)c3)c2CC[C@@H]1C` [I-162, (S)-methyl 5-(3-cyano-4-fluorophenoxy)-2-methyl-6-(1-(piperidin-4-yl)-1H-pyrazol-4-yl)-3,4-dihydroquinoline-1(2H)-carboxylate] the IC50 [1] was 100 to 1000 nM, the IC50 [2] was under 50 nM and the IC50 ([3]; MV4-11, 72 h) was under 500 nM.
Work on `CC(=O)N1c2ccc(-c3cnn(C4CCNCC4)c3)c(Oc3ncc(C(F)(F)F)cc3F)c2CC[C@@H]1C` [I-521] yielded an IC50 [1] of 100 to 1000 nM, an IC50 [2] of under 50 nM and an IC50 ([3]; MV4-11, 72 h) of under 500 nM.
With `COC(=O)N1c2ccc(-c3cnn(C4CCNCC4)c3)c(Oc3cccc(F)c3C#N)c2CC[C@@H]1C` [I-148, (S)-methyl 5-(2-cyano-3-fluorophenoxy)-2-methyl-6-(1-(piperidin-4-yl)-1H-pyrazol-4-yl)-3,4-dihydroquinoline-1(2H)-carboxylate] the IC50 [1] was 100 to 1000 nM, the IC50 [2] was under 50 nM and the IC50 ([3]; MV4-11, 72 h) was under 500 nM.
In the case of `CC(=O)N1c2ccc(-c3cnn(CCO)c3)c(Oc3ncc(C(C)C)cn3)c2CC[C@@H]1C` [I-545], the IC50 [1] is reported as 100 to 1000 nM, the IC50 [2] is reported as under 50 nM and the IC50 ([3]; MV4-11, 72 h) is reported as under 500 nM.
In the case of `CC(=O)N1c2ccc(-c3cnn(C4CCNCC4)c3)c(Oc3ncccn3)c2CC[C@@H]1C` [I-513], the IC50 [1] is reported as 1000 to 10000 nM, the IC50 [2] is reported as 50 to 500 nM and the IC50 ([3]; MV4-11, 72 h) is reported as under 500 nM.
For `COc1cnc(Oc2c(-c3cnn(CCO)c3)ccc3c2CC[C@H](C)N3C(C)=O)nc1` [I-546], the IC50 [1] was 100 to 1000 nM, the IC50 [2] was under 50 nM and the IC50 ([3]; MV4-11, 72 h) was 500 to 1000 nM.
`CC(=O)N1c2ccc(-c3cnn(CCO)c3)c(Oc3ncc(F)cn3)c2CC[C@@H]1C` [I-543] showed an IC50 [1] of 100 to 1000 nM, an IC50 [2] of 50 to 500 nM and an IC50 ([3]; MV4-11, 72 h) of under 500 nM.
